Question: For `CC(C)(C)OC(=O)N[C@@H](CCCN=C(N)N[N+](=O)[O-])C(=O)O`, which solubility (mole fraction) (in DMF, 283.15 K) is on record?
Answer: 0.164

Question: And the solubility (mole fraction) (in DMF, 288.15 K)?
Answer: 0.185

Question: And the solubility (mole fraction) (in DMF, 293.15 K)?
Answer: 0.211

Question: What about the solubility (mole fraction) (in DMF, 298.15 K) of the same molecule?
Answer: 0.246

Question: What about the solubility (mole fraction) (in DMF, 303.15 K) of the same molecule?
Answer: 0.29

Question: What about the solubility (mole fraction) (in DMF, 308.15 K) of the same molecule?
Answer: 0.346

Question: And the solubility (mole fraction) (in DMF, 313.15 K)?
Answer: 0.415

Question: What about the solubility (mole fraction) (in DMF, 318.15 K) of the same molecule?
Answer: 0.505

Question: And the solubility (mole fraction) (in DMF, 323.15 K)?
Answer: 0.62

Question: And the solubility (mole fraction) (in acetonitrile, 283.15 K)?
Answer: 0.0012

Question: And the solubility (mole fraction) (in acetonitrile, 288.15 K)?
Answer: 0.00144

Question: What about the solubility (mole fraction) (in acetonitrile, 293.15 K) of the same molecule?
Answer: 0.00168

Question: And the solubility (mole fraction) (in acetonitrile, 298.15 K)?
Answer: 0.00193

Question: What about the solubility (mole fraction) (in acetonitrile, 303.15 K) of the same molecule?
Answer: 0.00222

Question: What about the solubility (mole fraction) (in acetonitrile, 308.15 K) of the same molecule?
Answer: 0.00262

Question: And the solubility (mole fraction) (in acetonitrile, 313.15 K)?
Answer: 0.00324

Question: What about the solubility (mole fraction) (in acetonitrile, 318.15 K) of the same molecule?
Answer: 0.00392

Question: What about the solubility (mole fraction) (in acetonitrile, 323.15 K) of the same molecule?
Answer: 0.00491

Question: What about the solubility (mole fraction) (in ethanol, 283.15 K) of the same molecule?
Answer: 0.015

Question: And the solubility (mole fraction) (in ethanol, 288.15 K)?
Answer: 0.0188

Question: What about the solubility (mole fraction) (in ethanol, 293.15 K) of the same molecule?
Answer: 0.0234

Question: And the solubility (mole fraction) (in ethanol, 298.15 K)?
Answer: 0.0282

Question: And the solubility (mole fraction) (in ethanol, 303.15 K)?
Answer: 0.0327

Question: And the solubility (mole fraction) (in ethanol, 308.15 K)?
Answer: 0.0391

Question: And the solubility (mole fraction) (in ethanol, 313.15 K)?
Answer: 0.0469

Question: And the solubility (mole fraction) (in ethanol, 318.15 K)?
Answer: 0.0563

Question: What about the solubility (mole fraction) (in ethanol, 323.15 K) of the same molecule?
Answer: 0.0666

Question: And the solubility (mole fraction) (in ethyl acetate, 283.15 K)?
Answer: 0.000705

Question: And the solubility (mole fraction) (in ethyl acetate, 288.15 K)?
Answer: 0.000846

Question: What about the solubility (mole fraction) (in ethyl acetate, 293.15 K) of the same molecule?
Answer: 0.000955

Question: What about the solubility (mole fraction) (in ethyl acetate, 298.15 K) of the same molecule?
Answer: 0.00104

Question: And the solubility (mole fraction) (in ethyl acetate, 303.15 K)?
Answer: 0.00114

Question: What about the solubility (mole fraction) (in ethyl acetate, 308.15 K) of the same molecule?
Answer: 0.0013

Question: What about the solubility (mole fraction) (in ethyl acetate, 313.15 K) of the same molecule?
Answer: 0.00147

Question: And the solubility (mole fraction) (in ethyl acetate, 318.15 K)?
Answer: 0.00161

Question: What about the solubility (mole fraction) (in ethyl acetate, 323.15 K) of the same molecule?
Answer: 0.00187

Question: And the solubility (mole fraction) (in isobutanol, 283.15 K)?
Answer: 0.00231

Question: And the solubility (mole fraction) (in isobutanol, 288.15 K)?
Answer: 0.00296

Question: And the solubility (mole fraction) (in isobutanol, 293.15 K)?
Answer: 0.00394

Question: What about the solubility (mole fraction) (in isobutanol, 298.15 K) of the same molecule?
Answer: 0.00499

Question: And the solubility (mole fraction) (in isobutanol, 303.15 K)?
Answer: 0.00618

Question: What about the solubility (mole fraction) (in isobutanol, 308.15 K) of the same molecule?
Answer: 0.00799

Question: And the solubility (mole fraction) (in isobutanol, 313.15 K)?
Answer: 0.00954

Question: What about the solubility (mole fraction) (in isobutanol, 318.15 K) of the same molecule?
Answer: 0.0112

Question: What about the solubility (mole fraction) (in isobutanol, 323.15 K) of the same molecule?
Answer: 0.0143

Question: And the solubility (mole fraction) (in isopropanol, 283.15 K)?
Answer: 0.00489

Question: And the solubility (mole fraction) (in isopropanol, 288.15 K)?
Answer: 0.0067

Question: And the solubility (mole fraction) (in isopropanol, 293.15 K)?
Answer: 0.00844

Question: What about the solubility (mole fraction) (in isopropanol, 298.15 K) of the same molecule?
Answer: 0.0102

Question: And the solubility (mole fraction) (in isopropanol, 303.15 K)?
Answer: 0.0127

Question: What about the solubility (mole fraction) (in isopropanol, 308.15 K) of the same molecule?
Answer: 0.0152

Question: What about the solubility (mole fraction) (in isopropanol, 313.15 K) of the same molecule?
Answer: 0.0184

Question: And the solubility (mole fraction) (in isopropanol, 318.15 K)?
Answer: 0.0224

Question: What about the solubility (mole fraction) (in isopropanol, 323.15 K) of the same molecule?
Answer: 0.0267

Question: What about the solubility (mole fraction) (in methanol, 283.15 K) of the same molecule?
Answer: 0.042

Question: And the solubility (mole fraction) (in methanol, 288.15 K)?
Answer: 0.0507

Question: What about the solubility (mole fraction) (in methanol, 293.15 K) of the same molecule?
Answer: 0.0601

Question: What about the solubility (mole fraction) (in methanol, 298.15 K) of the same molecule?
Answer: 0.0692

Question: What about the solubility (mole fraction) (in methanol, 303.15 K) of the same molecule?
Answer: 0.0752

Question: What about the solubility (mole fraction) (in methanol, 308.15 K) of the same molecule?
Answer: 0.0824

Question: And the solubility (mole fraction) (in methanol, 313.15 K)?
Answer: 0.0908

Question: What about the solubility (mole fraction) (in methanol, 318.15 K) of the same molecule?
Answer: 0.0976

Question: And the solubility (mole fraction) (in methanol, 323.15 K)?
Answer: 0.111

Question: What about the solubility (mole fraction) (in n-butanol, 283.15 K) of the same molecule?
Answer: 0.00377

Question: What about the solubility (mole fraction) (in n-butanol, 288.15 K) of the same molecule?
Answer: 0.00498

Question: What about the solubility (mole fraction) (in n-butanol, 293.15 K) of the same molecule?
Answer: 0.00583

Question: And the solubility (mole fraction) (in n-butanol, 298.15 K)?
Answer: 0.00707

Question: What about the solubility (mole fraction) (in n-butanol, 303.15 K) of the same molecule?
Answer: 0.00842

Question: And the solubility (mole fraction) (in n-butanol, 308.15 K)?
Answer: 0.00996

Question: What about the solubility (mole fraction) (in n-butanol, 313.15 K) of the same molecule?
Answer: 0.0121

Question: And the solubility (mole fraction) (in n-butanol, 318.15 K)?
Answer: 0.0142

Question: And the solubility (mole fraction) (in n-butanol, 323.15 K)?
Answer: 0.0172

Question: What about the solubility (mole fraction) (in n-pentanol, 283.15 K) of the same molecule?
Answer: 0.00254

Question: What about the solubility (mole fraction) (in n-pentanol, 288.15 K) of the same molecule?
Answer: 0.00351

Question: What about the solubility (mole fraction) (in n-pentanol, 293.15 K) of the same molecule?
Answer: 0.0042

Question: And the solubility (mole fraction) (in n-pentanol, 298.15 K)?
Answer: 0.00489

Question: What about the solubility (mole fraction) (in n-pentanol, 303.15 K) of the same molecule?
Answer: 0.00595

Question: And the solubility (mole fraction) (in n-pentanol, 308.15 K)?
Answer: 0.00735

Question: What about the solubility (mole fraction) (in n-pentanol, 313.15 K) of the same molecule?
Answer: 0.00886

Question: And the solubility (mole fraction) (in n-pentanol, 318.15 K)?
Answer: 0.0106

Question: And the solubility (mole fraction) (in n-pentanol, 323.15 K)?
Answer: 0.013

Question: What about the solubility (mole fraction) (in n-propanol, 283.15 K) of the same molecule?
Answer: 0.00543

Question: And the solubility (mole fraction) (in n-propanol, 288.15 K)?
Answer: 0.00744

Question: What about the solubility (mole fraction) (in n-propanol, 293.15 K) of the same molecule?
Answer: 0.00919

Question: And the solubility (mole fraction) (in n-propanol, 298.15 K)?
Answer: 0.0114

Question: And the solubility (mole fraction) (in n-propanol, 303.15 K)?
Answer: 0.0132

Question: And the solubility (mole fraction) (in n-propanol, 308.15 K)?
Answer: 0.0161

Question: What about the solubility (mole fraction) (in n-propanol, 313.15 K) of the same molecule?
Answer: 0.0195

Question: And the solubility (mole fraction) (in n-propanol, 318.15 K)?
Answer: 0.0236

Question: And the solubility (mole fraction) (in n-propanol, 323.15 K)?
Answer: 0.0285

Question: And the solubility (mole fraction) (in sec-butanol, 283.15 K)?
Answer: 0.00398

Question: What about the solubility (mole fraction) (in sec-butanol, 288.15 K) of the same molecule?
Answer: 0.00546

Question: And the solubility (mole fraction) (in sec-butanol, 293.15 K)?
Answer: 0.00729

Question: And the solubility (mole fraction) (in sec-butanol, 298.15 K)?
Answer: 0.00896

Question: And the solubility (mole fraction) (in sec-butanol, 303.15 K)?
Answer: 0.0113

Question: What about the solubility (mole fraction) (in sec-butanol, 308.15 K) of the same molecule?
Answer: 0.0138

Question: And the solubility (mole fraction) (in sec-butanol, 313.15 K)?
Answer: 0.0162

Question: And the solubility (mole fraction) (in sec-butanol, 318.15 K)?
Answer: 0.0192

Question: And the solubility (mole fraction) (in sec-butanol, 323.15 K)?
Answer: 0.0222

Question: And the solubility (mole fraction) (in water, 283.15 K)?
Answer: 0.000283

Question: What about the solubility (mole fraction) (in water, 288.15 K) of the same molecule?
Answer: 0.000334

Question: What about the solubility (mole fraction) (in water, 293.15 K) of the same molecule?
Answer: 0.000356

Question: And the solubility (mole fraction) (in water, 298.15 K)?
Answer: 0.000404

Question: What about the solubility (mole fraction) (in water, 303.15 K) of the same molecule?
Answer: 0.000471

Question: And the solubility (mole fraction) (in water, 308.15 K)?
Answer: 0.000522

Question: What about the solubility (mole fraction) (in water, 313.15 K) of the same molecule?
Answer: 0.000643

Question: What about the solubility (mole fraction) (in water, 318.15 K) of the same molecule?
Answer: 0.000799

Question: And the solubility (mole fraction) (in water, 323.15 K)?
Answer: 0.000986
